{
  "source": "ChEMBL document CHEMBL3045576",
  "about": "“Azadirachtin avoidance by larvae and adult females of the tomato leafminer Tuta absoluta” (2013)",
  "key": {"Tuta absoluta [1]": {"system": "Tuta absoluta", "assay": "Resistance ratio of LC50 for Tuta absoluta Vicosa larvae to LC50 for Tuta absoluta Araguari larvae", "type": "functional"}, "Tuta absoluta [2]": {"system": "Tuta absoluta", "assay": "Walking avoidance activity against second-instar larval stage of Tuta absoluta Vicosa infested compound-pretreated filter paper assessed as effect on walking time at LC90 concentration measured for 10 min", "type": "functional, organism-based"}, "Tuta absoluta [3]": {"system": "Tuta absoluta", "assay": "Insecticidal activity against second-instar larval stage of Tuta absoluta in tomato leaves assessed as survival rate at 27 mg ai/L incubated for 5 s prior to larval infestation after 9 days (reference value: >60%)", "type": "functional", "details": "216 h"}, "Tuta absoluta [4]": {"system": "Tuta absoluta", "assay": "Egg-laying avoidance activity against non-sexed adult stage of Tuta absoluta Araguari in compound-pretreated tomato leaves assessed as decrease in number of eggs laid at equal to and greater than LC50 concentration measured for 2 days by free-choice test", "type": "functional, organism-based"}, "Tuta absoluta [5]": {"system": "Tuta absoluta", "assay": "Walking avoidance activity against fourth-instar larval stage of Tuta absoluta Araguari infested compound-pretreated filter paper assessed as effect on walking time at LC90 concentration measured for 10 min", "type": "functional, organism-based"}, "Tuta absoluta [6]": {"system": "Tuta absoluta", "assay": "Walking avoidance activity against second-instar larval stage of Tuta absoluta Araguari infested compound-pretreated filter paper assessed as effect on walking time at LC90 concentration measured for 10 min", "type": "functional, organism-based"}, "Tuta absoluta [7]": {"system": "Tuta absoluta", "assay": "Egg-laying avoidance activity against non-sexed adult stage of Tuta absoluta Araguari in compound-pretreated tomato leaves assessed as decrease in number of eggs laid at LC10 to LC90 concentration measured for 2 days by no-choice test", "type": "functional, organism-based"}, "Tuta absoluta [8]": {"system": "Tuta absoluta", "assay": "Walking avoidance activity against fourth-instar larval stage of Tuta absoluta Vicosa infested compound-pretreated filter paper assessed as effect on walking time at LC90 concentration measured for 10 min", "type": "functional, organism-based"}, "Tuta absoluta [9]": {"system": "Tuta absoluta", "assay": "Effect on leaf mining activity of Tuta absoluta Araguari second-instar larvae in compound-pretreated tomato leaves assessed as length of time required to mine the leaf at LC10 to LC90 concentration", "type": "functional"}, "Tuta absoluta [10]": {"system": "Tuta absoluta", "assay": "Walking avoidance activity against second-instar larval stage of Tuta absoluta Vicosa in compound-pretreated tomato leaves assessed as decrease in walking time at LC10 concentration measured after 6 hr", "type": "functional, organism-based"}, "Tuta absoluta [11]": {"system": "Tuta absoluta", "assay": "Resistance ratio of LC90 for Tuta absoluta Vicosa larvae to LC90 for Tuta absoluta Araguari larvae", "type": "functional"}, "Tuta absoluta [12]": {"system": "Tuta absoluta", "assay": "Egg-laying avoidance activity against non-sexed adult stage of Tuta absoluta Vicosa in compound-pretreated tomato leaves assessed as decrease in number of eggs laid at LC10 to LC90 concentration measured for 2 days by no-choice test", "type": "functional, organism-based"}, "Tuta absoluta [13]": {"system": "Tuta absoluta", "assay": "Insecticidal activity against Tuta absoluta Vicosa larvae in compound-pre-treated tomato leaves assessed as mortality after 144 hr", "type": "functional"}, "Tuta absoluta [14]": {"system": "Tuta absoluta", "assay": "Effect on leaf mining activity of Tuta absoluta Vicosa second-instar larvae in compound-pretreated tomato leaves assessed as length of time required to mine the leaf at LC10 to LC90 concentration", "type": "functional"}, "Tuta absoluta [15]": {"system": "Tuta absoluta", "assay": "Insecticidal activity against second-instar larval stage of Tuta absoluta in tomato leaves assessed as delay in larval development at 27 mg ai/L incubated for 5 s prior to larval infestation after 9 days", "type": "functional, organism-based"}, "Tuta absoluta [16]": {"system": "Tuta absoluta", "assay": "Resistance ratio of LC10 for Tuta absoluta Vicosa larvae to LC10 for Tuta absoluta Araguari larvae", "type": "functional"}, "Tuta absoluta [17]": {"system": "Tuta absoluta", "assay": "Walking avoidance activity against second-instar larval stage of Tuta absoluta Araguari in compound-pretreated tomato leaves assessed as decrease in walking time at LC50 to LC90 concentration measured after 6 hr", "type": "functional, organism-based"}, "Tuta absoluta [18]": {"system": "Tuta absoluta", "assay": "Insecticidal activity against Tuta absoluta Araguari larvae in compound-pre-treated tomato leaves assessed as mortality after 144 hr", "type": "functional"}, "Tuta absoluta [19]": {"system": "Tuta absoluta", "assay": "Insecticidal activity against second-instar larval stage of Tuta absoluta in tomato leaves assessed as survival rate at 1.7 mg ai/L incubated for 5 s prior to larval infestation after 9 days (reference value: >60%)", "type": "functional", "details": "216 h"}, "Tuta absoluta [20]": {"system": "Tuta absoluta", "assay": "Walking avoidance activity against second-instar larval stage of Tuta absoluta Vicosa in compound-pretreated tomato leaves assessed as decrease in walking time at LC50 to LC90 concentration measured after 6 hr", "type": "functional, organism-based"}, "Tuta absoluta [21]": {"system": "Tuta absoluta", "assay": "Egg-laying avoidance activity against non-sexed adult stage of Tuta absoluta Vicosa in compound-pretreated tomato leaves assessed as decrease in number of eggs laid measured for 2 days by free-choice test", "type": "functional, organism-based"}, "Tuta absoluta [22]": {"system": "Tuta absoluta", "assay": "Walking avoidance activity against second-instar larval stage of Tuta absoluta Araguari in compound-pretreated tomato leaves assessed as decrease in walking time at LC10 concentration measured after 6 hr", "type": "functional, organism-based"}},
  "note": "Active and inactive are the calls of the source. No cut-off for these calls is given here.",
  "data": [
    {"smiles": "C/C=C(\\C)C(=O)O[C@H]1C[C@@H](OC(C)=O)[C@@]2(C(=O)OC)CO[C@H]3[C@@H](O)[C@@](C)([C@]45O[C@@]4(C)[C@@H]4C[C@H]5O[C@@H]5OC=C[C@@]54O)[C@H]4[C@]1(CO[C@]4(O)C(=O)OC)[C@@H]32", "note": "[AZADIRACHTIN A]", "values": [
      {"measurement": "Ratio", "setting": "Tuta absoluta [1]", "value": 1.8},
      {"measurement": "Activity", "setting": "Tuta absoluta [2]", "value": "inactive"},
      {"measurement": "survival at 27 µg/mL", "setting": "Tuta absoluta [3]", "value": "< 4", "unit": "%"},
      {"measurement": "inhibition", "setting": "Tuta absoluta [4]", "value": "Active"},
      {"measurement": "Activity", "setting": "Tuta absoluta [5]", "value": "inactive"},
      {"measurement": "Activity", "setting": "Tuta absoluta [6]", "value": "inactive"},
      {"measurement": "inhibition", "setting": "Tuta absoluta [7]", "value": "inactive"},
      {"measurement": "Activity", "setting": "Tuta absoluta [8]", "value": "inactive"},
      {"measurement": "Time", "setting": "Tuta absoluta [9]", "value": 38.72, "unit": "min"},
      {"measurement": "inhibition", "setting": "Tuta absoluta [10]", "value": "inactive"},
      {"measurement": "Ratio", "setting": "Tuta absoluta [11]", "value": 1.96},
      {"measurement": "inhibition", "setting": "Tuta absoluta [12]", "value": "inactive"},
      {"measurement": "LC10", "setting": "Tuta absoluta [13]", "value": 1.59, "unit": "mgAi/L"},
      {"measurement": "LC50", "setting": "Tuta absoluta [13]", "value": 10.09, "unit": "mgAi/L"},
      {"measurement": "LC90", "setting": "Tuta absoluta [13]", "value": 64.06, "unit": "mgAi/L"},
      {"measurement": "Time", "setting": "Tuta absoluta [14]", "value": 33.56, "unit": "min"},
      {"measurement": "Activity", "setting": "Tuta absoluta [15]", "value": "Active"},
      {"measurement": "Ratio", "setting": "Tuta absoluta [16]", "value": 1.65},
      {"measurement": "inhibition", "setting": "Tuta absoluta [17]", "value": "Active"},
      {"measurement": "LC10", "setting": "Tuta absoluta [18]", "value": 0.97, "unit": "mgAi/L"},
      {"measurement": "LC50", "setting": "Tuta absoluta [18]", "value": 5.62, "unit": "mgAi/L"},
      {"measurement": "LC90", "setting": "Tuta absoluta [18]", "value": 32.71, "unit": "mgAi/L"},
      {"measurement": "survival at 1.7 µg/mL", "setting": "Tuta absoluta [19]", "value": 25, "unit": "%"},
      {"measurement": "inhibition", "setting": "Tuta absoluta [20]", "value": "Active"},
      {"measurement": "inhibition", "setting": "Tuta absoluta [21]", "value": "Dose-dependent effect"},
      {"measurement": "inhibition", "setting": "Tuta absoluta [22]", "value": "inactive"}
    ]}
  ]
}
